Laboratory results: ChEMBL document CHEMBL3621049, “Imidazole derivatives show anticancer potential by inducing apoptosis and cellular senescence” (2014)
Activity calls are given as the source filed them.

Columns and labels:
Type in all cases: functional, cell-based
MDA-MB-231 = test: Growth inhibition of human MDA-MB-231 cells at 10 uM by sulforhodamine B assay
SK-OV-3 = test: Growth inhibition of human SKOV3 cells at 10 uM by sulforhodamine B assay
LOX IMVI = test: Growth inhibition of human LOXIMVI cells at 10 uM by sulforhodamine B assay
SR = test: Growth inhibition of human SR cells at 10 uM by sulforhodamine B assay
HL-60(TB) = test: Growth inhibition of human HL-60(TB) cells at 10 uM by sulforhodamine B assay
SK-MEL-5 = test: Growth inhibition of human SK-MEL-5 cells at 10 uM by sulforhodamine B assay
MDA-MB-435 = test: Growth inhibition of human MDA-MB-435 cells at 10 uM by sulforhodamine B assay
786-0 = test: Growth inhibition of human 786-0 cells at 10 uM by sulforhodamine B assay
CAKI-1 = test: Growth inhibition of human Caki1 cells at 10 uM by sulforhodamine B assay
RPMI-8226 = test: Growth inhibition of human RPMI8226 cells at 10 uM by sulforhodamine B assay
BT-549 = test: Growth inhibition of human BT549 cells at 10 uM by sulforhodamine B assay
HCC 2998 = test: Growth inhibition of human HCC2998 cells at 10 uM by sulforhodamine B assay
IGROV-1 = test: Growth inhibition of human IGROV1 cells at 10 uM by sulforhodamine B assay
MOLT-4 = test: Growth inhibition of human MOLT4 cells at 10 uM by sulforhodamine B assay
HCT-15 = test: Growth inhibition of human HCT15 cells at 10 uM by sulforhodamine B assay
OVCAR-5 = test: Growth inhibition of human OVCAR5 cells at 10 uM by sulforhodamine B assay
MDA-MB-468 = test: Growth inhibition of human MDA-MB-468 cells at 10 uM by sulforhodamine B assay
HT-29 = test: Growth inhibition of human HT-29 cells at 10 uM by sulforhodamine B assay
NCI-H23 = test: Growth inhibition of human NCI-H23 cells at 10 uM by sulforhodamine B assay
NCI-H522 = test: Growth inhibition of human NCI-H522 cells at 10 uM by sulforhodamine B assay
K562 = test: Growth inhibition of human K562 cells at 10 uM by sulforhodamine B assay
SF-268 = test: Growth inhibition of human SF268 cells at 10 uM by sulforhodamine B assay
SNB-19 = test: Growth inhibition of human SNB19 cells at 10 uM by sulforhodamine B assay
ACHN = test: Growth inhibition of human ACHN cells at 10 uM by sulforhodamine B assay
DU-145 = test: Growth inhibition of human DU145 cells at 10 uM by sulforhodamine B assay
SW-620 = test: Growth inhibition of human SW620 cells at 10 uM by sulforhodamine B assay
OVCAR-3 = test: Growth inhibition of human OVCAR3 cells at 10 uM by sulforhodamine B assay
TK-10 = test: Growth inhibition of human TK10 cells at 10 uM by sulforhodamine B assay
OVCAR-8 = test: Growth inhibition of human OVCAR8 cells at 10 uM by sulforhodamine B assay
SF-295 = test: Growth inhibition of human SF295 cells at 10 uM by sulforhodamine B assay
MCF7 = test: Growth inhibition of human MCF7 cells at 10 uM by sulforhodamine B assay
UACC-257 = test: Growth inhibition of human UACC257 cells at 10 uM by sulforhodamine B assay
SN12C = test: Growth inhibition of human SN12C cells at 10 uM by sulforhodamine B assay
Malme-3M = test: Growth inhibition of human MALME-3M cells at 10 uM by sulforhodamine B assay
T47D = test: Growth inhibition of human T47D cells at 10 uM by sulforhodamine B assay
A549 = test: Growth inhibition of human A549/ATCC cells at 10 uM by sulforhodamine B assay
CCRF-CEM = test: Growth inhibition of human CCRF-CEM cells at 10 uM by sulforhodamine B assay
SK-MEL-28 = test: Growth inhibition of human SK-MEL-28 cells at 10 uM by sulforhodamine B assay
SK-MEL-2 = test: Growth inhibition of human SK-MEL-2 cells at 10 uM by sulforhodamine B assay
HCT-116 = test: Growth inhibition of human HCT116 cells at 10 uM by sulforhodamine B assay
NCI-H226 = test: Growth inhibition of human NCI-H226 cells at 10 uM by sulforhodamine B assay
KM12 = test: Growth inhibition of human KM12 cells at 10 uM by sulforhodamine B assay
NCI-H460 = test: Growth inhibition of human NCI-H460 cells at 10 uM by sulforhodamine B assay
SF-539 = test: Growth inhibition of human SF539 cells at 10 uM by sulforhodamine B assay
HOP-92 = test: Growth inhibition of human HOP92 cells at 10 uM by sulforhodamine B assay
M14 = test: Growth inhibition of human M14 cells at 10 uM by sulforhodamine B assay
U-251 = test: Growth inhibition of human U251 cells at 10 uM by sulforhodamine B assay
UACC-62 = test: Growth inhibition of human UACC62 cells at 10 uM by sulforhodamine B assay
HOP-62 = test: Growth inhibition of human HOP62 cells at 10 uM by sulforhodamine B assay
UO-31 = test: Growth inhibition of human UO31 cells at 10 uM by sulforhodamine B assay
OVCAR-4 = test: Growth inhibition of human OVCAR4 cells at 10 uM by sulforhodamine B assay
COLO 205 = test: Growth inhibition of human COLO205 cells at 10 uM by sulforhodamine B assay
NCI/ADR-RES = test: Growth inhibition of human NCI/ADR-RES cells at 10 uM by sulforhodamine B assay
SNB-75 = test: Growth inhibition of human SNB75 cells at 10 uM by sulforhodamine B assay
RXF 393 = test: Growth inhibition of human RXF393 cells at 10 uM by sulforhodamine B assay
PC-3 = test: Growth inhibition of human PC3 cells at 10 uM by sulforhodamine B assay
A498 = test: Growth inhibition of human A498 cells at 10 uM by sulforhodamine B assay
NCI-H322M = test: Growth inhibition of human NCI-H322M cells at 10 uM by sulforhodamine B assay
Hs-578T = test: Growth inhibition of human Hs 578T cells at 10 uM by sulforhodamine B assay

Measured: growth inhibition (GI)

COc1ccc(-c2nc(-c3ccccc3)c(-c3ccccc3)[nH]2)cc1OC1CCCC1
active: all assays above

COc1cc(-c2nc(-c3ccccc3)c(-c3ccccc3)n2Cc2ccccc2)ccc1OC1CCCCC1
active: all assays above
